Assay [1] deals with HeLa cells stably transfected with human ABCA1 cDNA (ABCA1 cells). Nature of the assay: Cholesterol and phospholipid efflux from ABCA1-transfected HeLa cells (incl. time course). The class given is cell-based. As to the method:
(§1) HeLa cells stably transfected with human ABCA1 cDNA (ABCA1 cells) and HeLa cells transfected with only a hygromycin-resistant control plasmid (control cells) are produced and grown in α-modified Eagle's medium (aMEM) plus 10% fetal calf serum, as described by Remaley et al. (Biochem. Biophys. Res. Commun. 280:818-823, 2001). Cholesterol and phospholipid efflux is performed for 18 hours on noncholesterol-loaded cells radiolabeled with either cholesterol or choline (Remaley et al., Arterioscler. Thromb. Vasc. Biol. 17:1813-1821, 1997). Percentage efflux is calculated after subtracting the radioactive counts in the blank media (aMEM plus 1 mg/ml of BSA), and expressed as the percent of total radioactive counts removed from the cells during the efflux period.
(§2) ABCA1 cells are used to assess the ability of apoA-I and synthetic peptides to efflux lipid from cells. […] The peptides of the present invention efflux approximately 2- to 4-fold more cholesterol and phospholipid from ABCA1 cells than from control cells. Both the peptides of the present invention and apoA-I began to show saturation for lipid efflux at approximately the same protein concentration of 10 μg/ml.
Cholesterol efflux from ABCA1 cells to apoA-I is first detectable after 2 hours and increases throughout the 30 hour efflux period. […]

Assay [2] has as its system HeLa cells transfected with only a hygromycin-resistant control plasmid (control cells). Nature of the assay: Cholesterol and phospholipid efflux from control HeLa cells (incl. time course). The class given is cell-based, human. To be noted: 30 hour efflux period. As to the method:
as §1, §2
Cholesterol efflux from ABCA1 cells to apoA-I is first detectable after 2 hours and increases throughout the 30 hour efflux period. […] Overall, the kinetics for cholesterol efflux to peptides of the present invention from ABCA1 cells is similar to that of apoA-I, except that cholesterol efflux is first detectable after 30 minutes.

The subject of assay [3] is FU5AH rat hepatoma cells (SR-B1). Kind of assay: SR-B1 mediated cholesterol efflux. The assay is classed as cell-based. To be noted: samples minus blank; Apo A-I @ 20 μg/ml. An excerpt:
(§3) The methods employed in this study have been described in U.S. Pat. Nos. 7,029,863, 7,060,452, U.S. Patent Application Publication No. 2005/0191715, and in Moya et al., Arteriosclerosis & Thrombosis 1994:14:1056-1065 and Liu et al., J. Biol. Chem., 2003:278(44), 42976-42984. SR-B1 mediated cholesterol efflux is examined in FU5AH rat hepatoma cells and ABCA1 mediated cholesterol efflux is examined in J774 mouse macrophage cells as described in these references.

The test system of assay [4] is J774 mouse macrophage cells (ABCA1). Kind of assay: ABCA1 mediated cholesterol efflux. The class given is cell-based. As to conditions: samples minus blank, Apo A-I @ 20 μg/ml.
Text: as §3

For a further assay, the system named is CD11b. Nature of the assay: CD11b expression in stimulated monocytes by flow cytometry. To be noted: human monocytes, 1 μmol/L PMA, 20 μg/ml apoA-1 or peptide. The class given is cell-based. As to the method: Monocyte Isolation Peripheral whole blood (PWB) is drawn from healthy consenting individuals into syringes containing sodium citrate (final concentration—19.2 mM). Resting human monocytes are isolated from PWB by density centrifugation with Lymphoprep (Axis Shield). Mononuclear cells (MNCs) are collected and monocytes are further separated to purity using the Dynal negative isolation kit (Invitrogen). Monocytes are resuspended in phosphate buffered saline (PBS) and cell number is determined counting cell suspension on an automated hematology analyzer (Sysmex, KX-21N, USA). Purification of HDL and apoA-1 Human plasma apoA-1 is isolated as previously described and the purity determined using total mass spectrometry. Flow Cytometry 100 μL of monocytes are stimulated with either 1 μmol/L phorbol-myristate-acetate (PMA) or 1 μg/ml lipopolysaccharide (LPS) (Sigma, Australia) in the presence or absence of apoA-1 (20 μg/ml), or 20 μg/ml of the test peptides of the present invention. SEQ ID NOs: 72, 80, 89, 354, 355 and 372 are also tested individually. The cells are incubated with the FITC conjugated antibody to either the active epitope of CD11b (eBiosciences, USA, Clone CBRM1/5) or total CD11b (Serotec, USA, Clone ICRF44) for 15 min at 37° C. Cells are then fixed with 4% paraformaldehyde. Samples are controlled for by using the appropriately matched isotype matched negative control (FITC-anti-mouse IgG) (Serotec, USA, Clone W3/25). CD11b expression is measured by flow cytometry using FACS Calibur (Becton Dickinson). Analysis is conducted using the Cell Quest Pro software. Statistical Analysis Values are presented as the mean ±SD or percentage of control ±SD. FACS results are analyzed for statistical significance using one-way ANOVA followed by Bonferroni post-hoc test. Significance is accepted at P<0.05. […] The combined effects of increasing cholesterol efflux and decreasing inflammation indicate that the peptides of the present invention effectively mimic the function of Apo AI and will decrease atherosclerosis.

For assay [5], the system named is HeLa cells stably transfected with human ABCA1 cDNA (ABCA1 cells). To be noted: as previously described (Hamon et al.; Remaley et al.); cited from earlier work.
The subject of assay [6] is HeLa cells transfected with only a hygromycin-resistant control plasmid (control cells). As to conditions: as previously described (Hamon et al.; Remaley et al.); cited from earlier work.

With “apolipoprotein A-I [Apo A-I, reference compound]”, in assay [1], the “protein concentration at which lipid efflux begins to show saturation” value was around 10 µg/mL. In addition, in assay [1] (30 hour efflux period), the “time after which cholesterol efflux from ABCA1 cells is first detectable” value turned out to be 2 h. Further, in assay [2], the “cholesterol efflux to apoA-I from control cells, time course” value is “no significant increase above background”. In assay [3], the “SR-BI Mediated Efflux” value stood at 0.26 % Per 4 h. For the same substance, in assay [4], the “+ABCA1 Cells (efflux)” value is reported as 20.682 + 0.724 and the “−ABCA1 Cells (efflux)” value amounted to 1.713 ± 0.409. The “ABCA1 Mediated Efflux” value in assay [4] (equals +ABCA1 minus −ABCA1 cells) is listed as 18.97 % Per 4 h. In the assay with CD11b, the “PMA induced CD11b expression” value is “significantly reduce”. In addition, in assay [5], the “efflux of cholesterol and phospholipid to apoA-I after transfection with ABCA1” value is given as “do so after transfection with ABCA1”. Besides, the “efflux of cholesterol and phospholipid to apoA-I from control cells” value in assay [6] was “do not efflux significant amounts”.
